Key:
[1] = system: bovine coronary artery; assay: Vasorelaxant activity in bovine coronary artery rings precontracted with U-46619; format: cell-based; details: Bos taurus
Experimental: Vasorelaxant activity was measured in bovine coronary artery. Bovine hearts were obtained and the left anterior descending coronary artery was dissected and cleaned of connective tissue. Vessels of 1 mm diameter were cut into rings of 3 mm width as previously described (3, 27, 39). […] The vessels were suspended from a pair of stainless steel hooks in a 6-ml water-jacketed organ chamber. […] One hook was anchored to a steel rod and the other hook to a force transducer (model FT-03C; Grass Instruments, West Warwick, R.I.). Tension of the vessel was measured by an ETH-400 bridge amplifier, and the data were acquired with a MacLab 8e analog-to-digital converter and MacLab software version 3.5.6 (AD Instruments, Milford, Mass.) and stored on a Macintosh computer for subsequent data analysis.
Basal tension was set at the length-tension maximum of 3.5 g and equilibrated for 1.5 h. KCl (40 mM) was added to the chamber until reproducible maximal contractions were maintained. […] Cumulative additions of compounds were added to the chamber. Between concentration-response curves, the chambers were rinsed with fresh Krebs buffer, 40 mM KCl was administered to determine the maximum contraction, and the vessels were rinsed. Consecutive concentration-response curves were performed with 14,15-EET followed by a concentration-response curve to a compound. The experiment was always repeated with the order of the agonists reversed. […] The relaxation was plotted versus compound concentration and the EC50 determined utilizing statistical software.

[2] = target: Human recombinant sEH (Homo sapiens (Human), UniProt P34913); assay: Soluble epoxide hydrolase inhibition (PHOME fluorescent substrate); format: biochemical; details: Table 1 head prints μM (Table 2 prints nM for same numbers); read-out: sEHi IC50
Sequence of Human recombinant sEH (P34913 whole entry): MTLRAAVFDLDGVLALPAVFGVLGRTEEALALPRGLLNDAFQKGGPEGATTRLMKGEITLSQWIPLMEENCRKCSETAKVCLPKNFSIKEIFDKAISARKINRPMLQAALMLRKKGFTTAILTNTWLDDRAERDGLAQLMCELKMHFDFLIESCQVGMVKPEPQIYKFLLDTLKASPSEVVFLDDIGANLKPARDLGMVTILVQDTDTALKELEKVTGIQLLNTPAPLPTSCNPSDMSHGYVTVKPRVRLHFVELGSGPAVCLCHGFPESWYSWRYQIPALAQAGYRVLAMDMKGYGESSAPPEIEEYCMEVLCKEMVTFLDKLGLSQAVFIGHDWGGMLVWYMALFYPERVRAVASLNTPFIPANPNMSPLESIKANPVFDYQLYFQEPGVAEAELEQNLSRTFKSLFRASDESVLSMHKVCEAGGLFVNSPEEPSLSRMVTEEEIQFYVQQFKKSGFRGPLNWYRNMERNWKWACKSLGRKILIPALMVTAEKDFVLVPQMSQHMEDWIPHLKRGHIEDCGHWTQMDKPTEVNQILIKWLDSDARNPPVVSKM
Experimental: Compounds were tested for their ability to inhibit recombinant soluble epoxide hydrolase (sEH) protein. The assay utilizes (3-Phhenyl-oxiranyl)-acetic acid cyano-(6-methoxy-naphthalen-2-yl)-methyl ester (PHOME), a sensitive substrate for sEH that can be used to monitor the activity of both human and murine enzymes. […] Human recombinant sEH was incubated with substrate and compounds ranging in concentration from 0.1 to 1000 nM.

SMILES: CCCCCNC(=O)NCCCC/C=C\CCOc1cccc2sc(NC(C)=O)nc12 [Compound 33, N-(4-(8-(3-n-Pentylureido)oct-3(Z)-enyloxy)benzo[d]thiazol-2-yl)acetamide]
- activation at 10 µM ([1]; 10 μM, 100% relaxation = basal pre-U-46619 tension, read-out: Vascular Relax. % (10 μM)): 73%
- EC50 ([1]; bovine coronary artery, read-out: Vascular Relax. EC50): 3300 nM
- melting point: 113.7 to 113.8 °C
- IC50 [2]: 0.282 µM

Source: US9127027B2, “Epoxyeicosatrienoic acid analogs and methods of making and using the same” (The Medical College of Wisconsin, Inc., priority 2011, dated 2015)
